Assay results from patent US20150105252A1, “SUBSTITUTED PYRAZOLES AS HERBICIDES” (E I DU PONT DE NEMOURS AND COMPANY, priority 2013, published 2015).

How the values were obtained:
[1] = test system: foxtail, giant; test: Test A postemergence; format: in vivo, Setaria faberii
Method in brief: (§1)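 Visual injury ratings, 0 = no effect to 100 = complete control, taken about 10 days after treatment against untreated controls. Test chemicals, in a non-phytotoxic surfactant-containing solvent, were sprayed onto soil preemergence or onto one- to two-leaf plants (2–10 cm) postemergence, in loam–sand soil under greenhouse conditions.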

[2] = test system: sedge, umbrella; test: Test C flooded paddy test; format: in vivo, Cyperus difformis; conditions: Flood
Method in brief: (§2)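 Greenhouse pots flooded to 3 cm above soil at time of treatment received compound via the water, which stayed at that level.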

[3] = test system: ducksalad; test: Test B flood; format: in vivo, Heteranthera limosa; conditions: 250 g ai/ha, visual rating on 0 to 100 scale (0 no effect, 100 complete control), 13 to 15 days
Method in brief: (§3)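 Visual ratings on a 0–100 scale, where 0 means no effect and 100 means complete control, were assigned by comparison with controls 13 to 15 days after treatment. Compounds went into paddy water over 2-leaf plants flooded to 3 cm.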

[4] = test system: foxtail, giant; test: Test A preemergence; format: in vivo, Setaria faberii; conditions: preemergence
Method in brief: as §1

[5] = test system: barnyardgrass; test: Test C flooded paddy test; format: in vivo, Echinochloa crus-galli; conditions: Flood
Method in brief: as §2

[6] = test system: morningglory; test: Test A postemergence; format: in vivo, Ipomoea spp.
Method in brief: as §1

[7] = test system: crabgrass, large; test: Test A postemergence; format: in vivo, Digitaria sanguinalis
Method in brief: as §1

[8] = test system: sedge, umbrella; test: Test B flood; format: in vivo, Cyperus difformis; conditions: 250 g ai/ha, visual rating on 0 to 100 scale (0 no effect, 100 complete control), 13 to 15 days
Method in brief: as §3

[9] = test system: rice; test: Test B flood; format: in vivo, Oryza sativa; conditions: 250 g ai/ha, visual rating on 0 to 100 scale (0 no effect, 100 complete control), 13 to 15 days
Method in brief: as §3

[10] = test system: crabgrass, large; test: Test A preemergence; format: in vivo, Digitaria sanguinalis; conditions: preemergence
Method in brief: as §1

[11] = test system: barnyardgrass; test: Test A preemergence; format: in vivo, Echinochloa crus-galli; conditions: preemergence
Method in brief: as §1

[12] = test system: wheat; test: Test A preemergence; format: in vivo, Triticum aestivum; conditions: preemergence
Method in brief: as §1

[13] = test system: velvetleaf; test: Test A preemergence; format: in vivo, Abutilon theophrasti; conditions: preemergence
Method in brief: as §1

[14] = test system: barnyardgrass; test: Test B flood; format: in vivo, Echinochloa crus-galli; conditions: 250 g ai/ha, visual rating on 0 to 100 scale (0 no effect, 100 complete control), 13 to 15 days
Method in brief: as §3

[15] = test system: corn; test: Test A postemergence; format: in vivo, Zea mays
Method in brief: as §1

[16] = test system: barnyardgrass; test: Test A postemergence; format: in vivo, Echinochloa crus-galli
Method in brief: as §1

[17] = test system: morningglory; test: Test A preemergence; format: in vivo, Ipomoea spp.; conditions: preemergence
Method in brief: as §1

[18] = test system: wheat; test: Test A postemergence; format: in vivo, Triticum aestivum
Method in brief: as §1

[19] = test system: corn; test: Test A preemergence; format: in vivo, Zea mays; conditions: preemergence
Method in brief: as §1

[20] = test system: velvetleaf; test: Test A postemergence; format: in vivo, Abutilon theophrasti
Method in brief: as §1

[21] = test system: rice; test: Test C flooded paddy test; format: in vivo, Oryza sativa; conditions: Flood
Method in brief: as §2

[22] = test system: pigweed; test: Test A postemergence; format: in vivo, Amaranthus retroflexus
Method in brief: as §1

[23] = test system: pigweed; test: Test A preemergence; format: in vivo, Amaranthus retroflexus; conditions: preemergence
Method in brief: as §1

[24] = test system: ducksalad; test: Test C flooded paddy test; format: in vivo, Heteranthera limosa; conditions: Flood
Method in brief: as §2

[25] = Postemergence, 500 g ai/ha, 0 to 100 scale (0 no effect, 100 complete control)
[26] = postemergence, 125 g ai/ha, about 10 days, visual rating on 0 to 100 scale (0 no effect, 100 complete control)
[27] = 31 g ai/ha, scale 0 to 100 (0 no effect, 100 complete control)
[28] = 62 g ai/ha, scale 0 to 100 (0 no effect, 100 complete control)
[29] = 125 g ai/ha, visual injury, 0 to 100 scale, approx. 10 days
[30] = 500 g ai/ha, visual injury after approx. 10 days, 0 to 100 scale (0 no effect, 100 complete control)
[31] = 125 g ai/ha, visual injury approx. 10 days after treatment

CCCCNC(=O)c1cc(CC)n(Cc2ccnc(C(F)(F)F)c2)n1 [Compound 141]
Foxtail, Giant plant response rating [1, 25]: 90 | Foxtail, Giant plant response rating [1, 26]: 80 | Plant response rating, Sedge, Umbrella [2, 27]: 30 | Plant response rating, Sedge, Umbrella [2, 28]: 70 | Plant response rating, Sedge, Umbrella ([2]; 125 g ai/ha, scale 0 to 100): 95 | Plant response rating, Sedge, Umbrella ([2]; 250 g ai/ha, scale 0 to 100): 100 | Plant response rating, Ducksalad [3]: 100 | Foxtail, Giant plant response rating [4, 29]: 90 | Foxtail, Giant plant response rating [4, 30]: 100 | Plant response rating, Barnyardgrass [5, 27]: 0 | Plant response rating, Barnyardgrass [5, 28]: 0 | Plant response rating, Barnyardgrass ([5]; 125 g ai/ha, scale 0 to 100): 20 | Plant response rating, Barnyardgrass ([5]; 250 g ai/ha, scale 0 to 100): 35 | Morningglory plant response rating [6, 25]: 100 | Morningglory plant response rating [6, 26]: 90 | Crabgrass, Large plant response rating [7, 25]: 90 | Crabgrass, Large plant response rating [7, 26]: 70 | Plant response rating, Sedge, Umbrella [8]: 95 | Plant response rating, Rice [9]: 20 | Crabgrass, Large plant response rating [10, 29]: 100 | Crabgrass, Large plant response rating [10, 30]: 100 | Barnyardgrass plant response rating [11, 29]: 70 | Barnyardgrass plant response rating [11, 30]: 100 | Wheat plant response rating [12, 29]: 30 | Wheat plant response rating [12, 30]: 90 | Velvetleaf plant response rating [13, 29]: 10 | Velvetleaf plant response rating [13, 30]: 50 | Plant response rating, Barnyardgrass [14]: 45 | Corn plant response rating [15, 25]: 90 | Corn plant response rating [15, 26]: 50 | Barnyardgrass plant response rating [16, 25]: 80 | Barnyardgrass plant response rating [16, 26]: 40 | Morningglory plant response rating [17, 29]: 50 | Morningglory plant response rating [17, 30]: 100 | Wheat plant response rating [18, 25]: 80 | Wheat plant response rating [18, 26]: 30 | Corn plant response rating [19, 29]: 40 | Corn plant response rating [19, 30]: 80 | Velvetleaf plant response rating [20, 25]: 100 | Velvetleaf plant response rating [20, 26]: 30 | Plant response rating, Rice [21, 27]: 0 | Plant response rating, Rice [21, 28]: 0 | Plant response rating, Rice ([21]; 125 g ai/ha, scale 0 to 100): 20 | Plant response rating, Rice ([21]; 250 g ai/ha, scale 0 to 100): 20 | Pigweed plant response rating [22, 25]: 100 | Pigweed plant response rating [22, 26]: 60 | Pigweed plant response rating [23, 29]: 100 | Pigweed plant response rating [23, 30]: 100 | Plant response rating, Ducksalad [24, 27]: 40 | Plant response rating, Ducksalad [24, 28]: 80 | Plant response rating, Ducksalad ([24]; 125 g ai/ha, scale 0 to 100): 95 | Plant response rating, Ducksalad ([24]; 250 g ai/ha, scale 0 to 100): 100

CCCNC(=O)c1cc(COC)n(Cc2ccnc(C(F)(F)F)c2)n1 [Compound 168]
Foxtail, Giant plant response rating [1, 25]: 90 | Foxtail, Giant plant response rating [1, 26]: 60 | Plant response rating, Sedge, Umbrella [2, 27]: 0 | Plant response rating, Sedge, Umbrella [2, 28]: 50 | Plant response rating, Sedge, Umbrella ([2]; 125 g ai/ha, scale 0 to 100): 80 | Plant response rating, Ducksalad [3]: 90 | Foxtail, Giant plant response rating (0 to 100 scale) [4, 31]: 90 | Foxtail, Giant plant response rating [4, 30]: 100 | Plant response rating, Barnyardgrass [5, 27]: 0 | Plant response rating, Barnyardgrass [5, 28]: 0 | Plant response rating, Barnyardgrass ([5]; 125 g ai/ha, scale 0 to 100): 0 | Morningglory plant response rating [6, 25]: 100 | Morningglory plant response rating [6, 26]: 70 | Crabgrass, Large plant response rating [7, 25]: 90 | Crabgrass, Large plant response rating [7, 26]: 60 | Plant response rating, Sedge, Umbrella [8]: 90 | Plant response rating, Rice [9]: 20 | Crabgrass, Large plant response rating (0 to 100 scale) [10, 31]: 100 | Crabgrass, Large plant response rating [10, 30]: 100 | Barnyardgrass plant response rating [11, 29]: 20 | Barnyardgrass plant response rating [11, 30]: 100 | Wheat plant response rating (0 to 100 scale) [12, 31]: 10 | Wheat plant response rating [12, 30]: 70 | Velvetleaf plant response rating (0 to 100 scale) [13, 31]: 20 | Velvetleaf plant response rating [13, 30]: 100 | Plant response rating, Barnyardgrass [14]: 20 | Corn plant response rating [15, 25]: 80 | Corn plant response rating [15, 26]: 20 | Barnyardgrass plant response rating [16, 25]: 90 | Barnyardgrass plant response rating [16, 26]: 50 | Morningglory plant response rating (0 to 100 scale) [17, 31]: 80 | Morningglory plant response rating [17, 30]: 100 | Wheat plant response rating [18, 25]: 40 | Wheat plant response rating [18, 26]: 0 | Corn plant response rating (0 to 100 scale) [19, 31]: 0 | Corn plant response rating [19, 30]: 20 | Velvetleaf plant response rating [20, 25]: 70 | Velvetleaf plant response rating [20, 26]: 40 | Plant response rating, Rice [21, 27]: 0 | Plant response rating, Rice [21, 28]: 0 | Plant response rating, Rice ([21]; 125 g ai/ha, scale 0 to 100): 0 | Pigweed plant response rating [22, 25]: 100 | Pigweed plant response rating [22, 26]: 80 | Pigweed plant response rating (0 to 100 scale) [23, 31]: 100 | Pigweed plant response rating [23, 30]: 100 | Plant response rating, Ducksalad [24, 27]: 0 | Plant response rating, Ducksalad [24, 28]: 50 | Plant response rating, Ducksalad ([24]; 125 g ai/ha, scale 0 to 100): 70
